In patent US7541044B2, “Administration of 5T4 antigen and immune response of cells expressing 5T4 and CEA antigens” (priority 2004, dated 2009):

How the values were obtained:
[1] = test system: B16 melanoma lung metastases; conditions: tk gene then ganciclovir; immunocompetent but not immunodeficient mice; cited from earlier work
[2] = Adverse events, NCI-common toxicity criteria (BC1); type: in vivo, human; conditions: attributed to oral cyclophosphamide
Experimental: Further assessment was performed in out-patients on day 7. Biopsy of the injected tumour nodules was performed under local anaesthetic. The biopsies were snap-frozen in liquid nitrogen, then sectioned and fixed for histological assessment. Treatment with cyclophosphamide 100 mg/m^2 p.o. was commenced for 14 out of every 28 days. Patients were reviewed weekly for the first 8 weeks and end of study assessment, including tumour size and appropriate re-staging CT scans performed at 12 weeks. Response was assessed according to WHO criteria. Patients with stable or responding disease continued with cyclophosphamide at the discretion of the investigator. Toxicity was graded according to NCI-common toxicity criteria (version 2).
The main toxicity observed in the study was attributed to oral cyclophosphamide with the most frequent non-haematological events described as nausea (9 patients), alopecia (6 patients), headache (5 patients), anorexia (4 patients) and fatigue (4 patients). All of these events were grade I or II by NCI-CTC with the exception of one patient with grade III fatigue. Two patients had clinically significant haematological toxicity with grade III leucopenia and grade II neutropenia. No patients were admitted with neutropenic fever. […] During the study 3 patients with breast cancer experienced serious adverse events (patient 103 hypotension, dysarthria and left sided weakness, patient 104 trismus and tongue oedema and patient 108 deep vein thrombosis, hypotension and dyspnoea). None of the serious adverse events were considered related to MetXia-P450.

[3] = test system: colon carcinoma derived metastatic rat tumour line; conditions: SC tumour line transfected with cytosine deaminase gene, then 5-fluorocytosine; cited from earlier work

Nc1nc(O)c2ncn(COC(CO)CO)c2n1 [ganciclovir]
B16 melanoma lung metastases [1]: marked reduction

O=P1(N(CCCl)CCCl)NCCCO1 (stereo not drawn) [cyclophosphamide]
clinically significant haematological toxicity (grade III leucopenia and grade II neutropenia) [2]: Two
fatigue [2]: 4 patients
grade III fatigue [2]: one
alopecia ([2]; grade I or II): 6 patients
anorexia ([2]; grade I or II): 4 patients
headache ([2]; grade I or II): 5 patients
nausea ([2]; grade I or II): 9 patients

Nc1nc(=O)[nH]cc1F [5-fluorocytosine]
regression in the volume of established liver tumours [3]: 70%
